Reference: patent publication US6939992B2, “Polymorphic forms of sertraline hydrochloride” (Ciba Specialty Chemicals Corporation, priority 1999, dated 2005)
Where a name gives a salt, the structure may show the parent alone.

Tests used:
[1] = disclosed in U.S. Pat. No. 5,248,699; cited from earlier work
[2] = Solubility of the polymorphic form; type: physicochemical
[3] = Thermal stability / transformation on heating in a DSC apparatus; type: physicochemical
Method: The crystalline polymorph CSC2 upon heating is transformed into form V at temperatures of about >120° C., whereupon a second transformation takes place into form III at temperatures of about >160° C. (experiment performed in a DSC apparatus with heating rate of 20° C./minute).

[4] = DSC apparatus, heating rate of 20° C./minute

Row | Compound | stability compared with the other crystalline forms of sertraline hydrochloride [1] | solubility [2] | thermal stability [3] | temperature of second transformation into form III upon heating [3, 4] [°C] | temperature of transformation into form V upon heating [3, 4] [°C]
1 | CN[C@H]1CC[C@@H](c2ccc(Cl)c(Cl)c2)c2ccccc21 [form I, sertraline hydrochloride] | greatest stability |  |  |  | 
2 | CN[C@H]1CC[C@@H](c2ccc(Cl)c(Cl)c2)c2ccccc21 [CSC2, (1S-cis)-4-(3,4-dichlorophenyl)-1,2,3,4-tetrahydro-N-methyl-1-naphthalenamine hydrochloride] |  | high | good | > 160 | > 120
